This is an account of results in publication PMC3368197, “Noncytotoxic and Antitumour-Promoting Activities of Garcinia Acid Esters from Garcinia atroviridis Griff. ex T. Anders (Guttiferae)” (Evidence-based Complementary and Alternative Medicine : eCAM, 2012).

Where two headings read alike, the source gives them in different places. Some results are limits rather than exact numbers.

A short description of data set [1]: DPPH radical scavenging method. To be noted: 0.3 mM, 30 min. As for the experimental part: The methanol solution of 2,2-diphenyl-1-picrylhydrazyl hydrate (DPPH) (Aldrich Chem. Co., USA) radicals (1 mL, 0.3 mM) was added to each sample (1 mM, 0.5 mL) and was shaken vigorously. The absorbance of each sample was measured at 517 nm after allowing it to stand for 30 min. Each sample (final concentration, 0.3 mM) was assayed in triplicate and averaged. Standard antioxidants, that is, butylated hydroxytoluene (BHT) and ascorbic acid, were used as positive controls.
For orientation: Loss of DPPH colour is used to gauge radical scavenging.

In data set [2] the test system is Brine shrimp (Artemia saline Leach). The data set can be described thus: Brine shrimp lethality/toxicity assay. Format: in vivo. The note with it: brine shrimp nauplii, preliminary test concentration 300 μM. As for the experimental part: Brine shrimp (Artemia saline Leach) eggs (Gold Eagle, USA) were placed in a hatching tank containing sea water for 48 h. Each compound (6 μmol) was dissolved in 0.2 mL methylene chloride:methanol (1 : 1) to prepare a stock solution of 30 mM. From the stock solutions, 50 μL was transferred to different vials and allowed to evaporate. After evaporation, 5 mL of brine was added to each vial in triplicate to prepare a preliminary test concentration corresponding to 300 μM. Ten shrimp nauplii were added to each vial (30 shrimps per concentration). The number of survivors out of 30 shrimps per concentration was recorded.

Data set [3] has as its system CEM-SS (human T-lymphoblastic leukemia) cells. Kind of data set: MTT cytotoxicity assay. The note with it: 72 h. Format: cell-based. As for the experimental part:
The CEM-SS (human T-lymphoblastic leukemia) cell line was obtained from the National Cancer Institute, USA, and the Raji (human B-lymphoblastoid) cell line was provided by Prof. K. Koshimizu, Kinki University, Japan. Cells were cultured in RPMI-1640 (Sigma, USA) medium with 10% v/v foetal calf serum (Sera Lab, UK), 100 IU/mL penicillin (Sigma, USA) and 100 μg/mL streptomycin (Sigma, USA) as a complete growth medium (CGM). Cells were maintained in 25 cm^2 flask with 10 mL of CGM at 37°C with 5% CO2. Every three days the cells were subcultured by splitting the culture with fresh CGM at a ratio of 1 : 4 [10].
Cytotoxicity was determined using the MTT assay as reported by Ali et al.. Varying concentrations of the test compounds were prepared from the stock solutions by serial dilution in RPMI-1640 to give a volume of 100 μL in each well of a microtiter plate (96-well) as described before. Each well was filled with 100 μl of CEM-SS cell suspension in CGM at 1-2 × 10^5 cells/mL. Controls that contained only CEM-SS cells were included for each sample. The assay for each concentration of extract was performed in triplicate and the culture plates were kept at 37°C with 5% (v/v) CO2 for three days. After 72 h of incubation, 100 μL of medium was removed from each well. […] Absorbance values at 550 nm were measured with a microplate reader (Bio Tek EL 340, USA) after background subtraction at 630 nm. […]

Data set [4] has as its system Epstein-Barr virus early antigen (EBV-EA) activation. Kind of data set: In vitro antitumour-promoting assay: inhibition of EBV early antigen activation in Raji cells. It counts as cell-based. To be noted: for IC50: human gammaherpesvirus 4, Raji cells, 3 mM sodium n-butyrate + 50 nM PMA, 48 h. The procedure:
The inhibition of Epstein-Barr virus (EBV) activation was used to evaluate in vitro antitumour-promoting activity. Raji cells were incubated for 48 h at 37°C under 5% CO2 in 1 mL (~5 × 10^5 cells) of RPMI-1640 medium containing 3 mM sodium n-butyrate ([…] Tesque, Japan), 50 nM phorbol 12-myristate 13-acetate (PMA) (Sigma, USA) and the test compounds (600 μM) per well of a 24-well plate. Conventional indirect immunofluorescence staining of early antigen (EA) with high-titre EA-positive serum (EA titre 1 : 1,280) obtained from nasopharyngeal carcinoma (NPC) patients (1 : 20 serum dilution) followed by a 1 : 30 dilution of fluorescein-isothiocyanate-(FITC-)labeled IgG (Sigma, USA) was used to measure EBV activation. The ratio of EA-induced cells to the control experiments only with sodium n-butyrate and PMA was around 50%. The test compounds showing antitumour-promoting activity were serially diluted (2-fold) to determine the IC50 values.

For data set [5] the test system is unchanged. Details: method as in PMID 9247600, PMID 22140296. The note with it: known antitumour promoter; read-out: IC50, inhibition of EBV activation; cited from earlier work.

With `CCCCOC(=O)CC1(O)C(=O)OC1C(=O)OCCCC` (stereo not shown) [Compound 1, 2-(butoxycarbonylmethyl)-3-butoxycarbonyl-2-hydroxy-3-propanolide], the “Radical scavenging (%), DPPH assay” value in data set [1] stood at 3.4%. In data set [2], this compound had a median lethal concentration (LC50) above 300 µM. Moreover, the CD50 in data set [3] is above 100 µM. Also, in data set [4], the IC50 turned out to be 70 µM. The “fold higher antitumour-promoting activity than compound 2” value in data set [4] (ratio of EBV-EA IC50 values) was 8 fold.
Take `O=c1c(-c2ccc(O)cc2)coc2cc(O)cc(O)c12` [genistein]: the half-inhibitory concentration (IC50) in data set [5] was around 20 µM.
For the compound `CCCCOC(=O)CC(O)(C(=O)OC)C(O)C(=O)OCCCC` (stereo not shown) [Compound 2, 1′,1′′-dibutyl methyl hydroxycitrate], the “Radical scavenging (%), DPPH assay” value in data set [1] worked out at 5.5%. In data set [2], this compound gave an LC50 above 300 µM. For the same compound, the CD50 in data set [3] is above 100 µM. In addition, in data set [4], the IC50 came to 560 µM.

For orientation: LC50 means the concentration lethal to half of the exposed cells or organisms. One may read the IC50 as the concentration that gives 50% inhibition.
